# Assays:
# [1] = system: Male ICR mice; assay: Acute toxicity study, determination of LD50 values; type: in vivo; details: for LD50 / Survival at 2,000 mg/Kg: male ICR mice; for LD50: single intraperitoneal injection, observed for three days; for Acute symptoms observed: mouse, in vivo, ip; for Survival at 2,000 mg/Kg: i.p., 2,000 mg/Kg, three-day observation
# Description: (§1) Leflunomide, its metabolite (A77 1726), and several isoxazole derivatives were chosen for the acute toxicity study. Male ICR mice were used for the intraperitoneal injection of each compound at different doses according to the following procedure: Small male ICR mice are chosen, each weighing 17–23 grams. They are equally classified at random into individual groups, 3–5 mice per group. A predetermined dose of each selected compound in minimum DMSO/liquid paraffin is injected once intraperitoneally to mice in each group. Toxic reaction is observed for three days, then the acute half lethal dose (LD50) is determined.
# [2] = system: C6 (Rat Glialtumor Cell or CCL-107) Cell Line; assay: MTT colorimetric assay for cellular viability on C6 cells; type: cell-based; details: 48-h incubation
# Description: Cell lines (C6 and Hep G2) were obtained from the Bioresource Collection and Research Center. All cell culture media and supplements were purchased from Invitrogen, Co. (GIBCO™, Gland Island, N.Y.) unless otherwise specified. All cells were grown in a humid atmosphere of 95% air and 5% CO2 at 37° C. Cell lines were maintained under standard conditions in culture media recommended by the American Type Culture Collection (ATCC), unless otherwise specified. C6 cells were grown in 82.5% Ham's F-10 medium, 15% horse serum and 2.5% FBS. Hep G2 were cultured in 90% MEM (Eagle) with non-essential amino acids and Earle's BSS amd 10% FBS.
# All compounds were tested for inhibition of anchorage-dependent tumor cell growth using MTT assay. All compounds were individually solubilized in DMSO and diluted into appropriate growth medium at 2-fold desired final assay concentration. In assays, cells were seeded into 96-well plates and allowed to adhere for 24 h before drugs were introduced. Following a 48-h incubation, compounds and medium were removed by flicking, and each well was treated with 100 μl of 500 μg/ml MTT [3-(4,5-dimethylthiazol-2-yl)-2,5-diphenyltetrazolium bromide] in culture medium. Following a 4-h incubation period to allow metabolism of MTT by mitochondrial dehydrogenases of viable cells to form an insoluble formazan product, the crystals were dissolved in 100 μL of acid-SDS (0.01 N HCl in 10% SDS) by incubating the plate overnight. Absorbance, as a measure of cell viability, was read the following day in an ELISA plate reader at a wavelength of 550 nm. IC50 values were obtained by a linear regression analysis of percentage absorbance vs. log drug concentration.
# [3] = Acute toxicity study, determination of LD50 values; type: in vivo; details: male, ICR, mouse, in vivo, ip
# Description: as §1
# [4] = system: HT29 (adenocarcinoma of the colon); assay: SRB cell proliferation assay on HT-29 cells; type: cell-based, human; details: for Cell viability, Reading (avg of 3): HT-29, SRB reading at 515 nm, 5d exposure
# Description: The cell lines used were HT29 (adenocarcinoma of the colon). The tumor cells were grown at 37° C. in a humidified atmosphere (5% CO2) as monolayer cultures in RPMI 1640 medium supplemented with 10% FCS. Cells were trypsinized upon passage and maintained routinely.
# UTL-5b and UTL-5 were dissolved in DMSO as 4 mM stock solutions and then further diluted in 1% carboxymethyl cellulose.
# The SRB assay is routinely employed to measure cell proliferation by the US-NCI 60 cell line screen. Exponentially growing cells were harvested by trypsination, counted and seeded into 96 well plates (2.000 cells/well). […] Total protein mass was determined after 5d of continuous drug exposure by addition of Sulforhodamine B (0.4%) solution. Readings were read at 515 nm, as cell viability, and IC50 values were estimated based on the results.
Structure (SMILES),LD50 [1],Acute symptoms observed [1],IC50 [2] [µM],also measured
"C/C(O)=C(\C#N)C(=O)Nc1ccc(C(F)(F)F)cc1 [A77 1726, reference compound]",200 mg/kg,Cyanosis and deep necrosis,0.159,
"Cc1oncc1C(=O)Nc1ccc(C(F)(F)F)cc1 [Leflunomide, N-(4-trifluoromethylphenyl)-4-carboxamidyl-5-methylisoxazole, reference compound]",,Cyanosis and deep necrosis,,LD50 at 3 days [3]: 250 mg/kg; IC50 ([2]; Rattus norvegicus): 0.162 µM
Cc1cc(C(=O)Nc2ccccc2)no1 [UTL-5a],">2,000 mg/Kg",agitation,1.37,"Survival at 2,000 mg/Kg [1]: all mice were alive"
Cc1cc(C(=O)Nc2cccc(Cl)c2)no1 [UTL-5c],,,0.163,
Cc1cc(C(=O)Nc2ccc(Cl)cc2)no1 [UTL-5d],"1,800 mg/Kg",,0.81,"Activity in human colon cancer cell line HT29 (in words) ([4]; HT29, SRB assay): very good activity; Cell viability, Reading (avg of 3) ([4]; Conc. 0.001 μM): 1.238; Cell viability, Reading (avg of 3) ([4]; Conc. 0.002 μM): 1.014; Cell viability, Reading (avg of 3) ([4]; Conc. 0.01 μM): 0.886; Cell viability, Reading (avg of 3) ([4]; Conc. 0.05 μM): 0.914; Cell viability, Reading (avg of 3) ([4]; Conc. 0.1 μM): 0.864; Cell viability, Reading (avg of 3) ([4]; Conc. 0.5 μM): 0.893; Cell viability, Reading (avg of 3) ([4]; Conc. 1 μM): 0.436; Cell viability, Reading (avg of 3) ([4]; Conc. 10 μM): 0.314; Cell viability, Reading (avg of 3) ([4]; Conc. 50 μM): 0.164; Cell viability, Reading (avg of 3) ([4]; Conc. 100 μM): 0.13; IC50 ([4]; HT-29 cells, SRB assay, 5d continuous exposure, estimated from readings): 0.7 µM"
Cc1cc(C(=O)Nc2cccc(C(F)(F)F)c2)no1 [UTL-5e],,,0.2,
Cc1cc(C(=O)Nc2ccc(C(F)(F)F)cc2)no1 [UTL-5f],,,0.17,
Cc1cc(C(=O)Nc2ccc(Cl)cc2Cl)no1 [UTL-5g],">2,000 mg/Kg",agitation,0.18,"Survival at 2,000 mg/Kg [1]: all mice were alive"
COc1ccc(NC(=O)c2cc(C)on2)cc1 [UTL-5h],,,0.35,
COc1cc(NC(=O)c2cc(C)on2)cc(OC)c1OC [UTL-5i],,,1.18,
Cc1cc(C(=O)Nc2ccc(C(=O)O)cc2)no1 [UTL-5j],">2,000 mg/Kg",agitation,0.19,"Survival at 2,000 mg/Kg [1]: all mice were alive"
Cc1cc(C(=O)Nc2ccc(F)cc2)no1 [UTL-5k],,,> 1000,
CCOC(=O)CC[C@H](NC(=O)c1ccc(NC(=O)c2cc(C)on2)cc1)C(=O)OCC [UTL-5l],,,0.16,

# Reference: patent US7125902B2, “Methods, compounds, and diagnostics for cancer treatment” (priority 2004, dated 2006)
